Source: patent US20030124643A1, “Method and kit forrapid concurrent identification and antimicrobial susceptibility testing of microorganisms from broth culture” (priority 2001, published 2003)

Tests used:
E. coli = assay: Kit plate disk-quarter diffusion AST, mixed culture; assay type: cell-based; conditions: mixed culture with Staph. aureus, Cephalothin chamber 70', region confirmed by gram stain, FIG. 37
Source text: (§1) FIGS. 37A to 37C illustrates the growth of two microorganisms, Staph. aureus and E. coli, on the same preferred embodiment kit plate. FIGS. 37B and 37C are two different views of an enlargement of the AST test chambers (67′-70′ and 72′-75′). FIG. 37B viewed with back lighting. FIG. 37C viewed with front lighting. Two AST test chambers are featured in these figures: Mueller Hinton agar plus antimicrobial Cephalothin chamber 70′ and Mueller Hinton agar plus antimicrobial Enrofloxicin chamber 73′. Two margins are observable in each chamber: E coli & cephalothin margin 180 and Staph. aureus & cephalothin margin 181 for Cephalothin chamber 70′; and Staph. aureus & Enrofloxicin margin 182 and E. coli & Enrofloxicin margin 183 for Enrofloxicin chamber 73′. The region 176A is between the E. coli margin 180 and Staph. aureus margin 181 in Cephalothin chamber 70′. The region 178A is between the Staph. aureus margin 182 and the E. coli margin 183 in Enrofloxicin chamber 73′. Illustrated in FIG. 38 are two gram stains 176B and 178B of a sample from regions 176A and 178A respectively.
(§2) […] of this dilution is added per chamber. FIG. 17 illustrates the first chamber of the top two rows inoculated using dilution 140. Eighty micro liters of dilution 140 is added per chamber to the ten upper test chambers. […]

Staph. aureus = assay: as above; assay type: cell-based; conditions: mixed culture with E. coli, Enrofloxicin chamber 73', region confirmed by gram stain, FIG. 37
Source text: as §1, §2

Row | Compound | AST result in growth region 176A, between margins 180 and 181 (E. coli) | AST result in growth region 178A, between margins 182 and 183 (Staph. aureus)
1 | CC(=O)OCC1=C(C(=O)O)N2C(=O)[C@@H](NC(=O)Cc3cccs3)[C@H]2SC1 [Cephalothin] | resistance | –
2 | CCN1CCN(c2cc3c(cc2F)c(=O)c(C(=O)O)cn3C2CC2)CC1 [Enrofloxicin] | – | resistance
